Measurements reported in patent publication US20160060602A1, “FUSION MIXTURE” (FORSCHUNGSZENTRUM JÜLICH GMBH, priority 2013, published 2016).

Test system: MDA-MB-231 cancer cells
Assay: Doxorubicin delivery into cancer cells (fluorescence microscopy)
Format: cell-based
Conditions: MDA-MB-231 cells, 10-minute incubation, same amount of doxorubicin (2 μg)
Method: The components of fusion liposomes, DOTAL (molecules of type A) and Doxorubicin (molecules of type B), were mixed at a ratio of 1:0.1 mol/mol from 1 mg/ml parent solutions in chloroform.
Following homogenization of the lipid molecules with the aromatic doxorubicin, the organic solvent was removed under vacuum. The dried mixture was placed in 20 mM HEPES solution having a pH of 7.4 and homogenized in an ultrasonic bath for 20 minutes. The final concentration of the fusion mixture was set to 2 mg/ml. After a dilution of 1/100 v/v in DMEM medium, 500 μl of the fusion mixture was added to approximately 100,000 adherent MDA-MB-231 cancer cells and incubated for 10 minutes at 37° C.
A further cell sample was incubated with the same amount of doxorubicin (2 μg) in culture medium without fusion mixture for control purposes. The conventional dosage is 1 mg/ml.
In addition, doxorubicin was introduced into neutral DOPC liposomes (without molecules of type A) (DOPC:Dox at a ratio of 1:0.1 mol/mol) and added to adherent cells in the same concentration as in the other sample (2 μg/ml). […] The results were then compared to each other.

SMILES: COc1cccc2c1C(=O)c1c(O)c3c(c(O)c1C2=O)C[C@@](O)(C(=O)CO)C[C@@H]3O[C@H]1C[C@H](N)[C@H](O)[C@H](C)O1 [free doxorubicin, doxorubicin]
- doxorubicin uptake (fluorescent signal in cells): low fluorescent signal
